Data published in ChEMBL document CHEMBL3638861, “Phenyl-substituted 2-imino-3-methyl pyrrolo pyrimidinone compounds as BACE-1 inhibitors, compositions, and their use” (2013).

Molecular target: Beta-secretase 1 (Homo sapiens, UniProt P56817)
Experiment: Time-Resolved FRET Assay: A homogeneous time-resolved FRET assay was used to determine IC50 values for inhibitors of the soluble human BACE1 catalytic domain. The assay monitored the increase of 620nm fluorescence that resulted from BACE1 cleavage of an APPswedish APPswe mutant peptide FRET substrate (QSY7-EISEVNLDAEFC-Europium-amide).

Chain of Beta-secretase 1 (P56817 whole entry, the tested form may be a part): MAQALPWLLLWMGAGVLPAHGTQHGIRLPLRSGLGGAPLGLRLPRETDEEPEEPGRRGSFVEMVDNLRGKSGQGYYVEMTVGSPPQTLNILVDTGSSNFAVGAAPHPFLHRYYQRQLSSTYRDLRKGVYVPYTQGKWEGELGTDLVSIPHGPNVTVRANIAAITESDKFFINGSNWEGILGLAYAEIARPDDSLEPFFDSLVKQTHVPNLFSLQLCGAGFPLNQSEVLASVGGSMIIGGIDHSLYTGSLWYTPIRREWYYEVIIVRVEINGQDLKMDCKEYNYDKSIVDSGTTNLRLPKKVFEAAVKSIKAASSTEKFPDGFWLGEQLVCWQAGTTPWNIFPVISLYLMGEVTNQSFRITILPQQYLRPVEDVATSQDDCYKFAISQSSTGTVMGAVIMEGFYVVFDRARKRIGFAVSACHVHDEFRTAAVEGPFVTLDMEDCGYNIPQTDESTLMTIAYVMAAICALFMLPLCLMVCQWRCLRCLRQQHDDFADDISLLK

IC50: 42 nM | Ki: 8.9 nM
SMILES: COc1nc(N2C[C@H]3C(=O)N(C)C(=N)N[C@@]3(c3cc(F)ccc3Cl)C2)nc(C)c1F
